For orientation: IC50 means the point on the concentration scale where inhibition reaches its midpoint.

Data on 14 compounds can be found in patent US20100168167A1, “Piperidinones Useful in the Treatment of Inflammation” (priority 2007, published 2010).

For this assay, the target named is T1, PDE4 enzyme (U937 lysate or recombinant hPDE4).
T1 construct: cDNA containing PDE4D1 was cloned into a baculovirus vector, insect cells (SF9) were then infected and cells cultured to express the PDE4 protein
Kind of assay: In vitro inhibition of PDE4, Method A ([3H]cAMP SPA enzyme assay). Format: biochemical, human. Particulars: Biological Example 1, Method A. On the procedure:
PDE4 U937 cytoplasmic extracts were prepared by a modified procedure of the assay described in MacKenzie, S. J. and Houslay, M. D., “Action of rolipram on specific PDE4 cAMP phosphodiesterase isoforms and on the phosphorylation of cAMP-response-element-binding protein (CREB) and p38 mitogen-activated protein (MAP) kinase in U937 monocytic cells”, Biochem J. (2000), 347(Pt 2):571-8, by lysis of U937 cells (ATCC: Catalogue No. CRL-159) in M-PER Lysis buffer (Pierce) containing 10% protease inhibitor cocktail (Sigma). The cell lysates were then centrifuged at 30,000 rpm for 15 minutes at 4° C. The supernatants were aliquoted and stored at −80° C.
An alternative source of PDE4 enzymes was from recombinant human PDE4 obtained from baculovirus-SF9 cells expression system. cDNA containing PDE4D1 was cloned into a baculovirus vector, insect cells (SF9) were then infected and cells cultured to express the PDE4 protein. The cells were lysed and used directly in assay or partially purified using standard procedures. The process can be used for other PDE4 and PDE enzymes.
Compounds of the invention were evaluated for inhibitory activity against PDE4 enzymes by the following assay Method A or B.
PDE4 assay based on modified procedure of Phosphodiesterase [^3H]cAMP SPA Enzyme Assay (Amersham Biosciences, code TRKQ 7090). In this assay, PDE4 enzymes converts [^3H]cAMP to [^3H]5′-AMP. The assay is quenched by the addition of SPA yttrium silicate beads which preferentially bind linear nucleotides over cyclic nucleotides in the presence of zinc sulphate.
Reactions were performed in duplicate by the addition of 10 μl PDE4 enzyme (U937 lysate or recombinant hPDE4) to 20 μL of assay mix and 20 μL of test compounds in Isoplates (Wallac) for 30 minutes, at 37° C. The final assay mixture contained: 50 mM Tris (pH 7.5), 8.3 mM MgCl2, 1.7 mM EGTA and [^3H]cAMP (0.025 μCi) (Amersham). Assay was terminated by addition 25 μL SPA beads. The plate was sealed, shaken for 1 minute and then allowed to settle 30 minutes and the cpm determined using a Wallac Micobeta.

As for `COc1ccc([C@H]2CNC(=O)C(CC(=O)Nc3cccnc3)C2)cc1OC1CCCC1` (stereo partly drawn) [2-((5S)-5-(3-(cyclopentyloxy)-4-methoxyphenyl)-2-oxopiperidin-3-yl)-N-(pyridin-3-yl)acetamide], the IC50 amounted to 0.456 µM.

Turning to `COc1ccc([C@H]2CNC(=O)C(CC(=O)O)C2)cc1OC1CCCC1` (stereo partly drawn) [2-((5S)-5-(3-(cyclopentyloxy)-4-methoxyphenyl)-2-oxopiperidin-3-yl)acetic acid], the IC50 stood at 1.19 µM.

`COc1ccc([C@H]2CNC(=O)[C@@H](CC3CCOC3)C2)cc1OC1CCCC1` (stereo partly drawn) [(3R,5S)-5-(3-(cyclopentyloxy)-4-methoxyphenyl)-3-((tetrahydrofuran-3-yl)methyl)piperidin-2-one]: the IC50 was determined as 1.49 µM.

`COc1ccc2oc(C[C@H]3C[C@@H](c4ccc(OC)c(OC5CCCC5)c4)CNC3=O)cc2c1` [(3R,5S)-5-(3-cyclopentyloxy-4-methoxyphenyl)-3-(5-methoxy-2-benzofurylmethyl)piperidin-2-one]: the IC50 was 0.373 µM.

Consider `COc1ccc([C@H]2CNC(=O)[C@@H](Cc3nc4cc([N+](=O)[O-])ccc4o3)C2)cc1OC1CCCC1` [(3R,5S)-5-(3-cyclopentyloxy-4-methoxyphenyl)-3-(5-nitro-2-benzoxazolylmethyl)piperidin-2-one], for which the IC50 worked out at 0.653 µM.

On to `COc1ccc([C@H]2CNC(=O)[C@H](Cc3cccnc3)C2)cc1OC1CCCC1` [(3S,5S)-5-(3-(cyclopentyloxy)-4-methoxyphenyl)-3-(3-pyridinylmethyl)piperidin-2-one], for which the IC50 was found to be 0.489 µM.

Turning to `C=CCC1C[C@@H](c2ccc(OC)c(OC3CCCC3)c2)CNC1=O` (stereo partly drawn) [(5S)-3-allyl-5-(3-(cyclopentyloxy)-4-methoxyphenyl)piperidin-2-one], the IC50 is 0.29 µM.

For `COc1ccc([C@H]2CNC(=O)C(CC(O)CO)C2)cc1OC1CCCC1` (stereo partly drawn) [(5S)-5-(3-(cyclopentyloxy)-4-methoxyphenyl)-3-(2,3-dihydroxypropyl)piperidin-2-one], the IC50 was determined as 0.446 µM.

On to `COc1ccc([C@H]2CNC(=O)C(CCNc3ccccc3)C2)cc1OC1CCCC1` (stereo partly drawn) [(5S)-5-(3-(cyclopentyloxy)-4-methoxyphenyl)-3-(2-(phenylamino)ethyl)piperidin-2-one], for which the IC50 stood at 0.215 µM.

Turning to `COc1ccc([C@@H]2CCC(=O)N(C(=O)c3ccccc3)C2)cc1OC1CCCC1` [(S)-1-benzoyl-5-(3-(cyclopentyloxy)-4-methoxyphenyl)piperidin-2-one], the IC50 is 0.187 µM.

For the compound `COc1ccc([C@@H]2CCC(=O)N(Cc3ccccc3)C2)cc1OC1CCCC1` [(S)-1-benzyl-5-(3-(cyclopentyloxy)-4-methoxyphenyl)piperidin-2-one], the IC50 stood at 0.43 µM.

In the case of `C=CCC1(CC=C)C[C@@H](c2ccc(OC)c(OC3CCCC3)c2)CNC1=O` [(S)-3,3-diallyl-5-(3-(cyclopentyloxy)-4-methoxyphenyl)piperidin-2-one], the IC50 amounted to 0.651 µM.

For the compound `COc1ccc([C@@H]2CCC(=O)NC2)cc1-c1ccccc1` [(S)-5-(6-methoxybiphenyl-3-yl)piperidin-2-one], the IC50 is 0.146 µM.

In the case of `COc1ccc([C@H]2CNC(=O)/C(=C/c3cccc(C)c3)C2)cc1OC1CCCC1` [(S,E)-5-(3-(cyclopentyloxy)-4-methoxyphenyl)-3-(3-methylbenzylidene)piperidin-2-one], the IC50 is 0.389 µM.
